Experimental data published in PMC6358866 (International Journal of Molecular Sciences, 2019).

How the values were obtained:
[1] = tested on: Staphylococus aureus ATCC 6538 biofilm; experiment: Activity against biofilms on 96-well plates after withdrawal of the antimicrobial (additional 24 h in MHB II); format: cell-based, Staphylococcus aureus; settings: after withdrawal and additional 24 h in MHB II
Description: Bacterial strains were obtained from the Polish Collection of Microorganisms (Polish Academy of Science, Wroclaw, Poland). Three Gram-positive and two Gram-negative strains linked with CL-related infections were chosen for the study (Staphylococus aureus ATCC 6538, Staphylococcus epidermidis ATCC 14990, Pseudomonas aeruginosa ATCC 9027, Escherichia coli ATCC 25922, and Enterococcus faecalis ATCC 29212). The bacteria were cultured in a Mueller Hinton Broth II (MHB, Biocorp, Warsaw, Poland) overnight, under aerobic conditions at 37 °C. […] Bacterial suspensions were added to 96-well plates (Kartell, Noviglio, Italy) at initial inoculums of ca. 5 × 10^8 CFU/mL and incubated under aerobic conditions with shaking (120 rpm) at 37 °C for 24 h. […] After exposure, the wells were washed three times with PBS and a solution of resazurin (Sigma Aldrich, St. […] This cell viability reagent is metabolized by bacterial dehydrogenases upon contact with living cells. As a result, the blue dye is reduced to a pink resorufin. After 1.5 h of incubation, the absorbance was measured at 570 and 600 nm using a microplate reader (Thermo Fisher Scientific, Waltham, MA, USA). […] The procedure was conducted as described in Section 4.3, with the difference that after exposure to antimicrobials, the wells were washed three times with PBS and pure MHB II was added. The samples were incubated for another 24 h (aerobic conditions, 120 rpm shaking, 37 °C). […] The absorbance was measured at the same wave lengths and metabolic activity was calculated according to the formula given in Section 4.3. The presented results are means of nine results obtained on three different days.

[2] = tested on: Staphylococcus epidermidis ATCC 14990 biofilm on CLs; experiment: Activity of lipopeptide and CL liquids against biofilms formed on contact lenses; format: cell-based; settings: SE biofilm on CLs, lipopeptide in PBS, 24 h, resazurin
Description: (§1) Bacterial strains were obtained from the Polish Collection of Microorganisms (Polish Academy of Science, Wroclaw, Poland). Three Gram-positive and two Gram-negative strains linked with CL-related infections were chosen for the study (Staphylococus aureus ATCC 6538, Staphylococcus epidermidis ATCC 14990, Pseudomonas aeruginosa ATCC 9027, Escherichia coli ATCC 25922, and Enterococcus faecalis ATCC 29212). The bacteria were cultured in a Mueller Hinton Broth II (MHB, Biocorp, Warsaw, Poland) overnight, under aerobic conditions at 37 °C. After incubation, the liquid cultures were centrifuged (2500 rpm for 10 min) and washed with phosphoric buffer (PBS, AppliChem, Darmstadt, Germany) three times and resuspended in fresh MHB II for inoculums appropriate for the performed assays.
(§2) Bacterial biofilms were cultured on commercially available CLs (1-Day Acuvue Moist, containing Etafilcon A, obtained from Johnson and Johnson Vision Care, Jacksonsville, FL, USA). The CLs were placed in polystyrene 24-well plates (Orange Scientific, Braine-l’Alleud, Belgium) in bacterial suspensions in MHB II at initial inoculums of ca. 5 × 10^8 CFU/mL. After 24 h of incubation (aerobic conditions, 120 rpm shaking, 37 °C), all of the CLs were rinsed three times with PBS. […] After incubation, resazurin was added (final concentration per sample = 0.01%) and absorbance was measured as in the assays 4.3 and 4.4. Positive controls contained CLs with bacterial biofilms placed in pure PBS, while sterile CLs incubated in MHB II replaced with PBS served as negative controls. The experiments were performed in triplicate on three different days.

[3] = tested on: Escherichia coli ATCC 25922 biofilm on CLs; experiment: as above; format: cell-based; settings: EC biofilm on CLs, lipopeptide in PBS, 24 h, resazurin
Description: as §1, §2

[4] = tested on: Pseudomonas aeruginosa ATCC 9027 biofilm on CLs; experiment: as above; format: cell-based; settings: PA biofilm on CLs, lipopeptide in PBS, 24 h, resazurin
Description: as §1, §2

[5] = tested on: Enterococcus faecalis ATCC 29212 biofilm on CLs; experiment: as above; format: cell-based; settings: EF biofilm on CLs, lipopeptide in PBS, 24 h, resazurin
Description: as §1, §2

[6] = tested on: Staphylococus aureus ATCC 6538 biofilm on CLs; experiment: Lipopeptide, lens liquids and combinations against biofilms on CLs after withdrawal of the antimicrobial solution; format: cell-based, Staphylococcus aureus; settings: SA biofilm on CLs, lipopeptide in PBS, after withdrawal and 24 h in MHB II
Description: as §1
Bacterial biofilms were cultured on commercially available CLs (1-Day Acuvue Moist, containing Etafilcon A, obtained from Johnson and Johnson Vision Care, Jacksonsville, FL, USA). […] After incubation, resazurin was added (final concentration per sample = 0.01%) and absorbance was measured as in the assays 4.3 and 4.4. […]
The assay was also performed for the samples where biofilms on CLs were exposed to pure CL solutions. […] The results were read, calculated, and presented as in the previously-described sections.

[7] = tested on: human cells (keratinocytes, erythrocytes); settings: cited from earlier work
From the text: PA was also the most difficult strain to eliminate from the surface of CL in the previous study, in which we investigated amphibian peptides and short lipopeptides containing hexadecanoic acid according to their potential application as CL solution additives. The results of performed antimicrobial assays were also very promising. However, due to high toxicity towards human keratinocytes in vitro, the ocular applications of lipopeptides with hexadecanoic acid are not worth further consideration. In contrast to those lipopeptides, the compound with two residues of decanoic aci ... || The excellent antimicrobial activity was previously reported for many lipopeptides. This, along with the relatively low production costs, has encouraged many research groups to study their antimicrobial activities and design molecules with optimal properties. C16-KK-NH2 is one of such extensively studied compounds. […] Other derivatives ...

For (C10)2-KKKK-NH2 [Lipopeptide], the “concentration permanently eliminating living bacterial cells” value ([1]; SA biofilm on polystyrene) was 32 mg/L, the “MBEC II 50” value ([1]; lowest concentration giving permanent reduction of metabolic activity by at least 50 ± 5%) was 16 µg/mL and the “MBEC II 90” value ([1]; lowest concentration giving permanent reduction of metabolic activity by at least 90 ± 5%) was 32 µg/mL. The “concentration reducing metabolic activity of bacteria by at least 90%” value [2] was 8 mg/L, the “concentration reducing metabolic activity by more than 90%” value [3] was 32 mg/L and the “concentration reducing metabolic activity by more than 90%” value [4] was 32 mg/L. For the same substance, the “concentration reducing metabolic activity of bacteria by at least 90%” value [5] was 8 mg/L, the “concentration permanently removing biofilm from CLs” value [6] was 16 mg/L and the “toxicity towards human cells in vitro” value [7] was “does not exhibit toxicity”.
